Earlier results as cited in patent US5215744A, “Methods for the treatment of tumors” (Boehringer Ingelheim GmbH, priority 1987, dated 1993).

Assays:
[1] = test system: human promyelocytic leukemic cell line; conditions: cited from earlier work
[2] = test system: antimitotic effect of interferon and its natural killer cell activating activity; conditions: with interferon; cited from earlier work
[3] = test system: PDE; conditions: cited from earlier work
[4] = test system: HM-Kim mammary carcinoma; conditions: rat, in vivo; cited from earlier work
[5] = test system: C1300 neuroblastoma; conditions: mouse, in vivo; cited from earlier work
[6] = test system: cAMP; conditions: cited from earlier work
[7] = test system: interferon antitumor / growth inhibitory effect; conditions: cited from earlier work
[8] = test system: neoplastic cells; conditions: cited from earlier work
[9] = test system: syngeneic Wilms Tumor (nephroblastoma); conditions: rat, in vivo; cited from earlier work

## OCCN(CCO)c1nc(N2CCCCC2)c2nc(N(CCO)CCO)ncc2n1 [mopidamole, 2,6-bis-(diethanolamino)-4-piperidino-pyrimido[5,4-d]pyrimidine]
[1]
  reverse transformation of malignant cells: promotes a reverse transformation of the malignant cells to normal
[2]
  potentiation of interferon antimitotic effect and NK cell activating activity: potentiates the antimitotic effect of interferon and its natural killer cell activating activity
[3]
  PDE induced decomposition of cAMP: inhibition of PDE induced decomposition of cAMP
[4]
  spontaneous lung metastases: diminish significantly spontaneous lung metastases
[5]
  spontaneous lung metastases: diminish significantly spontaneous lung metastases
[6]
  cAMP levels: increase cAMP levels
[7]; Ambrus et al. 1983
  synergism with interferon: no synergism was seen
[7]; Wolf et al.
  synergism with α and γ interferon: no synergistic inhibitory effect
[7]; tissue culture
  effect on antitumor effect of leukocyte and fibroblastic interferon: potentiates the antitumor effect of leukocyte and fibroblastic interferon in tissue culture
[7]; with β-interferon
  effect on growth inhibition by human fibroblastic β-interferon: potentiates the growth inhibitory effect of human fibroblastic β-interferon
[8]
  3H-thymidine incorporation: inhibition of 3H-thymidine incorporation into neoplastic cells
  mitotic rate: direct inhibition of the mitotic rate
[9]
  spontaneous lung metastases: diminish significantly spontaneous lung metastases
